We go through 5 compounds from patent publication US12662479B2 (Foghorn Therapeutics Inc., priority 2020, dated 2026).

Test [1] deals with T1, HiBit-BRM fusion protein (Homo sapiens, UniProt P51531).
T1 construct: expressed in transfected cells
Put plainly: HiBiT-BRM cell-based degradation assay (Nano-Glo HiBiT Lytic Detection, 24 h). The note with it: HeLa cells expressing HiBiT-BRM; for DC50: read-out: BRM HiBit Degradation IC50; for BRM HiBit Degradation Maximum measured: top dose 30 μM. An outline of the steps: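 Stable HiBiT-BRM HeLa line; 24 h compound exposure, top final 30 μM, 3-fold, 10 pts in duplicate. Lytic HiBiT/LgBiT luminescence readout. % degradation vs DMSO (0%) and 2 μM known BRM/BRG1 degrader (100%).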
In general terms: HiBiT is a short tag that completes a luciferase, so light tracks the accessible tagged protein.

The target of test [2] is T2, HiBit-BRG1 fusion protein (Homo sapiens, UniProt P51532).
T2 construct: expressed in transfected cells
T2 sequence (P51532 whole entry, the tested form may be a part): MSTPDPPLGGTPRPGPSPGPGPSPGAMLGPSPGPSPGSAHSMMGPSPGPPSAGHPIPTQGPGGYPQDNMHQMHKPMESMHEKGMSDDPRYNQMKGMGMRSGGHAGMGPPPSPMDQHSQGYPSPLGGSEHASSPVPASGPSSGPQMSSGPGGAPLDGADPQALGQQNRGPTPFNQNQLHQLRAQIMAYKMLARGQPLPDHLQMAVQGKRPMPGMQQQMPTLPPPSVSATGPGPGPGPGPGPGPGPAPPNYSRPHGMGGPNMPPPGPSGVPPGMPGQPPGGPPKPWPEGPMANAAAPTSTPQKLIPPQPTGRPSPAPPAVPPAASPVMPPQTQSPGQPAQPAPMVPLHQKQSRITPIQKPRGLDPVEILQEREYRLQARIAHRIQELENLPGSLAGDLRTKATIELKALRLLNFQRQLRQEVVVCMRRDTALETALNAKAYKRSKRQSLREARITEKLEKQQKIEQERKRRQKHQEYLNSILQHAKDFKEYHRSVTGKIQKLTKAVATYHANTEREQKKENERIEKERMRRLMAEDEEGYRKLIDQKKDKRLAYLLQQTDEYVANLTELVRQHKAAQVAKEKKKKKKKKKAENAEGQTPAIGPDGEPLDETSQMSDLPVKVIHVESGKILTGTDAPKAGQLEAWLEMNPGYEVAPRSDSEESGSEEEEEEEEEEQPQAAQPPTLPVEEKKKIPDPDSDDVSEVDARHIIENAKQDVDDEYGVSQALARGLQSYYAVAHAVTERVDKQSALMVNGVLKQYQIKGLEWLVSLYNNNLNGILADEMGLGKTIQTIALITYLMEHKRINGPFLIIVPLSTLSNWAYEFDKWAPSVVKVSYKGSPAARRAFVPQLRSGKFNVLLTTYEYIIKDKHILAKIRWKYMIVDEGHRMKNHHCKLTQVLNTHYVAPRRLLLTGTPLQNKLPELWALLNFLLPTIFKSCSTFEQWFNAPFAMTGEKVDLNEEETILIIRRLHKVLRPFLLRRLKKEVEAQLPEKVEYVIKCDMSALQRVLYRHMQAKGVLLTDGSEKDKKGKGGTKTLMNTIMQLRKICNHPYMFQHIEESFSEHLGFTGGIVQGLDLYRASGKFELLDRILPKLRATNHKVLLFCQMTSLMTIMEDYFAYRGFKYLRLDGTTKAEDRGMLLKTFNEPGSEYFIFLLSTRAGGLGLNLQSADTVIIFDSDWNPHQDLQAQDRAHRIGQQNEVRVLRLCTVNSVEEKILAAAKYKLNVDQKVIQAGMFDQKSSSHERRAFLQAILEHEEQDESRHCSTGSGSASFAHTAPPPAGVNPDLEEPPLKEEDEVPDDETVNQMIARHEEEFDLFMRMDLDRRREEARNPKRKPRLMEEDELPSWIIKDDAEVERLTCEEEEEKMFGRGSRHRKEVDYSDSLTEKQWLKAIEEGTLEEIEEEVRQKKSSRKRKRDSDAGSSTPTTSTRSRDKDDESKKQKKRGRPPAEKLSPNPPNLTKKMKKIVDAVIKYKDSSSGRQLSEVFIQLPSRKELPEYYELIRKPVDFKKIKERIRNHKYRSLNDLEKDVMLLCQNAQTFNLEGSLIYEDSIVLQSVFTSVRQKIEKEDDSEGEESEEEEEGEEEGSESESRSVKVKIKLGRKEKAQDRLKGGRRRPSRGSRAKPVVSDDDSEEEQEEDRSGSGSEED
Put plainly: HiBiT-BRG1 cell-based degradation assay (Nano-Glo HiBiT Lytic Detection, 24 h). The note with it: HeLa cells expressing HiBit-BRG1 and LgBit; for DC50: read-out: BRG1 HiBit Degradation IC50; for Dmax: HeLa, top dose 30 μM, read-out: BRG1 HiBit Degradation Maximum measured. An outline of the steps: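 Degradation is scaled from DMSO-treated cells (0%) to cells given 2 μM of a known BRM/BRG1 degrader (100%). HeLa cells stably carrying HiBiT-BRG1 plus LgBiT (5000/well) were lysed with Nano-Glo HiBiT detection reagent, shaken 10 min at RT, and luminescence read.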

Molecules are shown by their SMILES. Where only a bound is given, the exact number is not on record here.

T1 sequence (P51531 whole entry, the tested form may be a part): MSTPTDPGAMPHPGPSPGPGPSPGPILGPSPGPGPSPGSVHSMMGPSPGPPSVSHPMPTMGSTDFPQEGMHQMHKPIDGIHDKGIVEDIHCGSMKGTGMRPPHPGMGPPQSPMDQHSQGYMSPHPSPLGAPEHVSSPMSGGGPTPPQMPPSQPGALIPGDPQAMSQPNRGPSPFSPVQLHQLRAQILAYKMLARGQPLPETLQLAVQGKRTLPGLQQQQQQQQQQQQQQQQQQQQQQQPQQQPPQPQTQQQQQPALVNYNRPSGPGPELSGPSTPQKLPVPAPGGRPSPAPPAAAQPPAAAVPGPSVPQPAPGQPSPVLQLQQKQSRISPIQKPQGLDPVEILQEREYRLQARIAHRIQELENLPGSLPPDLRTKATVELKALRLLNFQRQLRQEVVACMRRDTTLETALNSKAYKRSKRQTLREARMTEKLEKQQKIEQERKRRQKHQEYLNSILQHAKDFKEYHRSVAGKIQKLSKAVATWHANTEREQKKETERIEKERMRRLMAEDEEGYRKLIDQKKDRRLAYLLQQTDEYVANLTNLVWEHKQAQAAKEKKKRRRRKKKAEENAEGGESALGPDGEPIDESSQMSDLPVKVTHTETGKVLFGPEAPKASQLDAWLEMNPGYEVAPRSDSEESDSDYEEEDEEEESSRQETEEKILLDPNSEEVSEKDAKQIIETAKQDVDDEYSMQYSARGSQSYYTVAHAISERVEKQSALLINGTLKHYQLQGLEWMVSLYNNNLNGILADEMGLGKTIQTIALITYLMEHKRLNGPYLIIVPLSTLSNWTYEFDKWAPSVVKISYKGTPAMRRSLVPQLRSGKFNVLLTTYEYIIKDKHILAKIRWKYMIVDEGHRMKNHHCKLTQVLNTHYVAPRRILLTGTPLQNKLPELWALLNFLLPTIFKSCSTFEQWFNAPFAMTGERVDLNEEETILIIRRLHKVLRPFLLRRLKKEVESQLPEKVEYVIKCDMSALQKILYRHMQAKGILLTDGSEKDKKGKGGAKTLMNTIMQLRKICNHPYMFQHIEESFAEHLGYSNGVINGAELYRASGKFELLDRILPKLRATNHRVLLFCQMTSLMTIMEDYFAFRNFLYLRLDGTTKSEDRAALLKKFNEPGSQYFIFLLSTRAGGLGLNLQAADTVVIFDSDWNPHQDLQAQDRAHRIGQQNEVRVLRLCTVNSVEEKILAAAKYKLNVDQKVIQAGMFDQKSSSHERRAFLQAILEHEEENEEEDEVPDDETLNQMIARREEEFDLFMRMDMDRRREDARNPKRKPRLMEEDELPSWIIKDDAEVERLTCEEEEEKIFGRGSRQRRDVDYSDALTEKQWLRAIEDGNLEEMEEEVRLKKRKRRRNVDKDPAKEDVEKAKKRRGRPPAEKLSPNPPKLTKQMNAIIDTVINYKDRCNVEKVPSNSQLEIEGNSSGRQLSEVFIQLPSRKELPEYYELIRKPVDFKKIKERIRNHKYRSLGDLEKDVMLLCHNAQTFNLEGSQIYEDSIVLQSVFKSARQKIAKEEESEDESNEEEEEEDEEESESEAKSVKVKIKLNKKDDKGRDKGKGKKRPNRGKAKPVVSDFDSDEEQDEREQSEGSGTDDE

On to `CS(=O)(=O)n1ccc(C(=O)NCC(=O)Nc2nc(-c3cccc(-c4ccnc(C5(C(=O)NCCCCCCCCNC(=O)COc6cccc7c6C(=O)N(C6CCC(=O)NC6=O)C7=O)CC5)c4)c3)cs2)c1` (centres unmarked) [Compound 13, N-(2-((4-(3-(2-(1-((8-(2-((2-(2,6-dioxopiperidin-3-yl)-1,3-dioxoisoindolin-4-yl)oxy)acetamido)octyl)carbamoyl)-cyclopropyl)pyridin-4-yl)phenyl)thiazol-2-yl)amino)-2-oxoethyl)-1-(methylsulfonyl)-1H-pyrrole-3-carboxamide], for which, in test [1], the DC50 was > 10 µM and the “BRM HiBit Degradation Maximum measured” value was “C (‘C’ = Maximum degradation <50%)”. In addition, in test [2], the DC50 was in the range of 0.1 to 1 µM and the Dmax lay within 50 to 75%.

For the compound `CC(C)(C(=O)N1CCC(C2CCN(C(=O)COc3cccc4c3C(=O)N(C3CCC(=O)NC3=O)C4=O)CC2)CC1)n1ccc(-c2cccc(-c3csc(NC(=O)CNC(=O)c4ccn(S(C)(=O)=O)c4)n3)c2)n1` (centres unmarked) [Compound 10, N-[2-[[4-[3-[1-[2-[4-[1-[2-[2-(2,6-dioxo-3-piperidyl)-1,3-dioxo-isoindolin-4-yl]oxyacetyl]-4-piperidyl]-1-piperidyl]-1,1-dimethyl-2-oxo-ethyl]pyrazol-3-yl]phenyl]thiazol-2-yl]amino]-2-oxo-ethyl]-1-methylsulfonylpyrrole-3-carboxamide], in test [1], the DC50 was > 10 µM and the “BRM HiBit Degradation Maximum measured” value is “C (‘C’ = Maximum degradation <50%)”. In test [2], the DC50 was > 10 µM and the Dmax was < 50%.

For `CS(=O)(=O)n1ccc(C(=O)N[C@@H](COCc2ccc(CNC(=O)CCCCOc3cccc4c3C(=O)N(C3CCC(=O)NC3=O)C4=O)cc2)C(=O)Nc2nc(-c3ccccc3)cs2)c1` (stereo partly drawn) [Compound 212, 5-[[2-(2,6-dioxopiperidin-3-yl)-1,3-dioxoisoindol-4-yl]oxy]-N-[(4-[[(2S)-2-[(1-methanesulfonylpyrrol-3-yl)formamido]-2-[(4-phenyl-1,3-thiazol-2-yl)carbamoyl]ethoxy]methyl]phenyl)methyl]pentanamide], in test [1], the DC50 was > 10 µM and the “BRM HiBit Degradation Maximum measured” value is on record as “C (‘C’ = Maximum degradation <50%)”. Further, in test [2], the DC50 is > 10 µM and the Dmax is < 50%.

As for `CS(=O)(=O)n1ccc(C(=O)N[C@@H](CCCCNC(=O)CCN2CC3(C2)CN(c2ccc4c(c2)C(=O)N(C2CCC(=O)NC2=O)C4=O)C3)C(=O)Nc2nc(-c3ccccc3)cs2)c1` (stereo partly drawn) [Compound 294, (2S)-6-(3-[6-[2-(2,6-dioxopiperidin-3-yl)-1,3-dioxoisoindol-5-yl]-2,6-diazaspiro[3.3]heptan-2-yl]propanamido)-2-[(1-methanesulfonylpyrrol-3-yl)formamido]-N-(4-phenyl-1,3-thiazol-2-yl)hexanamide], in test [1], the DC50 was > 10 µM and the “BRM HiBit Degradation Maximum measured” value is given as “C (‘C’ = Maximum degradation <50%)”. In test [2], the DC50 is > 10 µM and the Dmax was < 50%.

Consider `Cc1ncsc1-c1ccc(CNC(=O)[C@@H]2C[C@@H](O)CN2C(=O)[C@@H](NC(=O)CCCCCCCCC(=O)NCCOc2cc(-c3cccc(-c4csc(NC(=O)CNC(=O)c5ccn(S(C)(=O)=O)c5)n4)c3)ccn2)C(C)(C)C)cc1` [Compound 69, N1-((S)-1-((2S,4R)-4-hydroxy-2-((4-(4-methylthiazol-5-yl)benzyl)carbamoyl)pyrrolidin-1-yl)-3,3-dimethyl-1-oxobutan-2-yl)-N10-(2-((4-(3-(2-(2-(1-(methylsulfonyl)-1H-pyrrole-3-carboxamido)acetamido)thiazol-4-yl)phenyl)pyridin-2-yl)oxy)ethyl)decanediamide], for which, in test [1], the DC50 was < 0.1 µM and the “BRM HiBit Degradation Maximum measured” value was “A (‘A’ = Maximum degradation >75%)”. For the same compound, in test [2], the DC50 was 0.1 to 1 µM and the Dmax is > 75%.
